Laboratory results reported in PubChem BioAssay AID1918998 (Molecular Pharmacology Branch, DTP, NCI, 2023).
Blank lines part the entries; values can stand above or below the compound they belong to.

Tested on: 521955-158-R2-J5-PDC complex spheroid growth
Test: Anticancer human tumor 521955-158-R2-J5-PDC patient-derived pancreatic carcinoma cell line growth inhibition [AhR]
Conditions: for viability, T/C: stronger effect = lower value
Method in brief: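 Spheroids combined tumor cells with HUVEC endothelial cells and human MSCs as stroma. AhR antagonists were paired with standard or investigational drugs, each dosed in half-log steps down from near clinical Cmax, or from 10 microM where Cmax was unknown.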

[1] = curve of first compound, second compound 0.1 µM
[2] = curve of first compound, second compound 0.316 µM
[3] = curve of first compound, second compound 1 µM
[4] = curve of first compound, second compound 3.16 µM
[5] = curve of first compound, second compound 10 µM
[6] = second compound 0.1 µM, first compound 0.0316 µM
[7] = second compound 0.1 µM, first compound 0.1 µM
[8] = second compound 0.1 µM, first compound 0.316 µM
[9] = second compound 0.1 µM, first compound 1 µM
[10] = second compound 0.1 µM, first compound 3.16 µM
[11] = second compound 0.1 µM, first compound 10 µM
[12] = second compound 0.316 µM, first compound 0.0316 µM
[13] = second compound 0.316 µM, first compound 0.1 µM
[14] = second compound 0.316 µM, first compound 0.316 µM
[15] = second compound 0.316 µM, first compound 1 µM
[16] = second compound 0.316 µM, first compound 3.16 µM
[17] = second compound 0.316 µM, first compound 10 µM
[18] = second compound 1 µM, first compound 0.0316 µM
[19] = second compound 1 µM, first compound 0.1 µM
[20] = second compound 1 µM, first compound 0.316 µM
[21] = second compound 1 µM, first compound 1 µM
[22] = second compound 1 µM, first compound 3.16 µM
[23] = second compound 1 µM, first compound 10 µM
[24] = second compound 3.16 µM, first compound 0.0316 µM
[25] = second compound 3.16 µM, first compound 0.1 µM
[26] = second compound 3.16 µM, first compound 0.316 µM
[27] = second compound 3.16 µM, first compound 1 µM
[28] = second compound 3.16 µM, first compound 3.16 µM
[29] = second compound 3.16 µM, first compound 10 µM
[30] = second compound 10 µM, first compound 0.0316 µM
[31] = second compound 10 µM, first compound 0.1 µM
[32] = second compound 10 µM, first compound 0.316 µM
[33] = second compound 10 µM, first compound 1 µM
[34] = second compound 10 µM, first compound 3.16 µM
[35] = second compound 10 µM, first compound 10 µM
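For viability, T/C in this document: spheroids mix tumor cells with HUVEC endothelium and human MSC stroma; luminescence taken as viability surrogate after a week of drug exposure.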

IC50 [1]: 4.56 µM
IC50 [2]: 3.74 µM
IC50 [3]: 2.94 µM
IC50 [4]: 3.62 µM
IC50 [5]: 3.36 µM
Structure (SMILES): Nc1ccccc1NC(=O)c1ccc(CNC(=O)OCc2cccnc2)cc1 + CC(CO)NC(=O)c1cc(-c2ccc(Cl)cc2)nn(-c2cnn(C)c2)c1=O
viability, T/C [6]: 119%
viability, T/C [7]: 126%
viability, T/C [8]: 123%
viability, T/C [9]: 87.9%
viability, T/C [10]: 66.2%
viability, T/C [11]: 22.9%
viability, T/C [12]: 111%
viability, T/C [13]: 130%
viability, T/C [14]: 114%
viability, T/C [15]: 85.9%
viability, T/C [16]: 57.1%
viability, T/C [17]: 25.2%
viability, T/C [18]: 118%
viability, T/C [19]: 134%
viability, T/C [20]: 120%
viability, T/C [21]: 77.1%
viability, T/C [22]: 54.6%
viability, T/C [23]: 20%
viability, T/C [24]: 115%
viability, T/C [25]: 109%
viability, T/C [26]: 117%
viability, T/C [27]: 75.6%
viability, T/C [28]: 58.8%
viability, T/C [29]: 17.6%
viability, T/C [30]: 94.7%
viability, T/C [31]: 91%
viability, T/C [32]: 101%
viability, T/C [33]: 81.6%
viability, T/C [34]: 52.6%
viability, T/C [35]: 14.1%

IC50 [1]: > 10 µM
IC50 [2]: 3.86 µM
IC50 [3]: 5.97 µM
IC50 [4]: 2.97 µM
IC50 [5]: 1.9 µM
Structure (SMILES): COc1ccc([C@@H](O)c2cc(-c3ncnc4cc(N5CCOCC5)ccc34)c(F)cc2Cl)nn1 + CC(CO)NC(=O)c1cc(-c2ccc(Cl)cc2)nn(-c2cnn(C)c2)c1=O
viability, T/C [6]: 94.8%
viability, T/C [7]: 90.2%
viability, T/C [8]: 95.7%
viability, T/C [9]: 89.7%
viability, T/C [10]: 61.2%
viability, T/C [11]: 50.9%
viability, T/C [12]: 82.4%
viability, T/C [13]: 98.9%
viability, T/C [14]: 99.9%
viability, T/C [15]: 83%
viability, T/C [16]: 52.3%
viability, T/C [17]: 41.5%
viability, T/C [18]: 114%
viability, T/C [19]: 101%
viability, T/C [20]: 96.7%
viability, T/C [21]: 79.3%
viability, T/C [22]: 61.7%
viability, T/C [23]: 40.3%
viability, T/C [24]: 104%
viability, T/C [25]: 86.2%
viability, T/C [26]: 116%
viability, T/C [27]: 73%
viability, T/C [28]: 54.6%
viability, T/C [29]: 42.7%
viability, T/C [30]: 87.7%
viability, T/C [31]: 88.9%
viability, T/C [32]: 79.3%
viability, T/C [33]: 57.9%
viability, T/C [34]: 44.8%
viability, T/C [35]: 35.5%

IC50 [1]: 0.0816 µM
IC50 [2]: 0.0294 µM
IC50 [3]: 0.0233 µM
IC50 [4]: 0.0218 µM
IC50 [5]: 0.0125 µM
Structure (SMILES): O=C(C=Cn1cnc(-c2cc(C(F)(F)F)cc(C(F)(F)F)c2)n1)NNc1cnccn1 + CC(CO)NC(=O)c1cc(-c2ccc(Cl)cc2)nn(-c2cnn(C)c2)c1=O
viability, T/C (second compound 0.1 µM, first compound 0.00949 µM): 59.2%
viability, T/C (second compound 0.1 µM, first compound 0.03 µM): 58.6%
viability, T/C (second compound 0.1 µM, first compound 0.0949 µM): 42.9%
viability, T/C (second compound 0.1 µM, first compound 0.3 µM): 45.7%
viability, T/C (second compound 0.1 µM, first compound 0.949 µM): 39.4%
viability, T/C (second compound 0.1 µM, first compound 3 µM): 29.1%
viability, T/C (second compound 0.316 µM, first compound 0.00949 µM): 85.6%
viability, T/C (second compound 0.316 µM, first compound 0.03 µM): 44.6%
viability, T/C (second compound 0.316 µM, first compound 0.0949 µM): 43.8%
viability, T/C (second compound 0.316 µM, first compound 0.3 µM): 38%
viability, T/C (second compound 0.316 µM, first compound 0.949 µM): 37.7%
viability, T/C (second compound 0.316 µM, first compound 3 µM): 23.9%
viability, T/C (second compound 1 µM, first compound 0.00949 µM): 62.8%
viability, T/C (second compound 1 µM, first compound 0.03 µM): 40.3%
viability, T/C (second compound 1 µM, first compound 0.0949 µM): 38.9%
viability, T/C (second compound 1 µM, first compound 0.3 µM): 38.8%
viability, T/C (second compound 1 µM, first compound 0.949 µM): 34.6%
viability, T/C (second compound 1 µM, first compound 3 µM): 21.7%
viability, T/C (second compound 3.16 µM, first compound 0.00949 µM): 58.9%
viability, T/C (second compound 3.16 µM, first compound 0.03 µM): 38.7%
viability, T/C (second compound 3.16 µM, first compound 0.0949 µM): 50.4%
viability, T/C (second compound 3.16 µM, first compound 0.3 µM): 29.4%
viability, T/C (second compound 3.16 µM, first compound 0.949 µM): 27.6%
viability, T/C (second compound 3.16 µM, first compound 3 µM): 25.6%
viability, T/C (second compound 10 µM, first compound 0.00949 µM): 52.7%
viability, T/C (second compound 10 µM, first compound 0.03 µM): 42.1%
viability, T/C (second compound 10 µM, first compound 0.0949 µM): 27.5%
viability, T/C (second compound 10 µM, first compound 0.3 µM): 26.7%
viability, T/C (second compound 10 µM, first compound 0.949 µM): 22.4%
viability, T/C (second compound 10 µM, first compound 3 µM): 17.7%

Further lines, the compound ahead of its results:

Structure (SMILES): CC(CO)NC(=O)c1cc(-c2ccc(Cl)cc2)nn(-c2cnn(C)c2)c1=O (configuration not stated)
viability, T/C (compound 10 µM): 87.4% [middle of 19 runs]
IC50 (compound alone, run of 05/31/2022): > 10 µM

Structure (SMILES): O=C(C=Cc1cccc(S(=O)(=O)Nc2ccccc2)c1)NO + Cc1cncc(-c2nc(NCCc3c[nH]c4ccccc34)c3ncn(C(C)C)c3n2)c1
IC50 [1]: 5.89 µM
IC50 [2]: 6.86 µM
IC50 [3]: > 10 µM
IC50 [4]: 6.64 µM
IC50 [5]: 1.73 µM
viability, T/C [6]: 119%
viability, T/C [7]: 115%
viability, T/C [8]: 138%
viability, T/C [9]: 93.6%
viability, T/C [10]: 63.7%
viability, T/C [11]: 39.8%
viability, T/C [12]: 131%
viability, T/C [13]: 129%
viability, T/C [14]: 125%
viability, T/C [15]: 101%
viability, T/C [16]: 66.5%
viability, T/C [17]: 42%
viability, T/C [18]: 146%
viability, T/C [19]: 132%
viability, T/C [20]: 137%
viability, T/C [21]: 108%
viability, T/C [22]: 73.6%
viability, T/C [23]: 51.4%
viability, T/C [24]: 135%
viability, T/C [25]: 143%
viability, T/C [26]: 147%
viability, T/C [27]: 106%
viability, T/C [28]: 61.3%
viability, T/C [29]: 43.5%
viability, T/C [30]: 151%
viability, T/C [31]: 112%
viability, T/C [32]: 108%
viability, T/C [33]: 69.2%
viability, T/C [34]: 25.2%
viability, T/C [35]: 5.33%
